Measured values from US10870638B2, “Pyridazinone compound or its salt, and herbicide containing it” (ISHIHARA SANGYO KAISHA, LTD., priority 2016, dated 2020).

Tests used:
Assay type in all cases: in vivo
[1] = system: barnyardgrass (Echinochloa crus-qalli L.); assay: Test Example 1: foliar treatment, growth inhibition rate on 14th day; conditions: active ingredient amount 31 g/ha, 14th day after application, visual, 0 = non-treated, 100 = complete kill
Method in brief: (§1)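 Using a small sprayer, formulated compound in water (0.1 vol % surfactant, 1,000 L/ha) was applied to seedlings grown from seed in upland soil. Fourteen days on, growth state was observed and expressed as percent inhibition from 0 to 100.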

corn (Zea mays L.) [2] = assay: as above; conditions: active ingredient amount 31 g/ha, 14th day after application, visual, 0 = non-treated, 100 = complete kill
Method in brief: as §1

[3] = system: crabgrass (Digitaria sanquinalis L.); assay: as above; conditions: active ingredient amount 31 g/ha, 14th day after application, visual, 0 = non-treated, 100 = complete kill
Method in brief: as §1

[4] = system: green foxtail (Setaria viridis L.); assay: as above; conditions: active ingredient amount 31 g/ha, 14th day after application, visual, 0 = non-treated, 100 = complete kill
Method in brief: (§2)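 Growth inhibition rates (%) come from visual observation on the 14th day following a single foliar application. Soybean was sprayed at the primary leaf stage, rice at 0.2–2.7 leaves, wild oat at 0.4–1.2, green foxtail at 0.5–3.2.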

[5] = system: italian ryegrass (Lolium multiflorum Lam.); assay: as above; conditions: active ingredient amount 31 g/ha, 14th day after application, visual, 0 = non-treated, 100 = complete kill
Method in brief: as §1

[6] = system: redroot pigweed (Amaranthus retroflexus L.); assay: as above; conditions: active ingredient amount 31 g/ha, 14th day after application, visual, 0 = non-treated, 100 = complete kill
Method in brief: as §1

rice (Oryza sativa L.) [7] = assay: as above; conditions: active ingredient amount 31 g/ha, 14th day after application, visual, 0 = non-treated, 100 = complete kill
Method in brief: as §2

[8] = system: soybean (Glycine max Merr.); assay: as above; conditions: active ingredient amount 31 g/ha, 14th day after application, visual, 0 = non-treated, 100 = complete kill
Method in brief: as §2

[9] = system: wheat (Triticum aestivum L.); assay: as above; conditions: active ingredient amount 31 g/ha, 14th day after application, visual, 0 = non-treated, 100 = complete kill
Method in brief: as §1

[10] = system: wild oat (Avena fatua L.); assay: as above; conditions: active ingredient amount 31 g/ha, 14th day after application, visual, 0 = non-treated, 100 = complete kill
Method in brief: as §2

[11] = system: barnyardgrass (Echinochloa crus-qalli L.); assay: Test Example 2: soil application on the day after sowing, growth inhibition rate on 14th day; conditions: active ingredient amount 31 g/ha, 14th day after application
Method in brief: (§3)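 Pre-emergence soil spray, day after sowing; WP or EC formulations diluted to 1,000 L/ha water at set a.i. rates. Visual growth inhibition %, 0 = untreated, 100 = complete kill, read at day 14.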

corn (Zea mays L.) [12] = assay: as above; conditions: active ingredient amount 31 g/ha, 14th day after application
Method in brief: as §3

[13] = system: crabgrass (Digitaris sanquinalis L.); assay: as above; conditions: active ingredient amount 31 g/ha, 14th day after application
Method in brief: as §3

[14] = system: green foxtail (Setaria viridis L.); assay: as above; conditions: active ingredient amount 31 g/ha, 14th day after application
Method in brief: as §3

[15] = system: prickly sida (Sida spinosa L.); assay: as above; conditions: active ingredient amount 31 g/ha, 14th day after application
Method in brief: as §3

[16] = system: redroot pigweed (Amaranthus retroflexus L.); assay: as above; conditions: active ingredient amount 31 g/ha, 14th day after application
Method in brief: as §3

rice (Oryza sativa L.) [17] = assay: as above; conditions: active ingredient amount 31 g/ha, 14th day after application
Method in brief: as §3

[18] = system: soybean (Glycine max Merr.); assay: as above; conditions: active ingredient amount 31 g/ha, 14th day after application
Method in brief: as §3

[19] = system: velvetleaf (Abutilon theophrasti MEDIC.); assay: as above; conditions: active ingredient amount 31 g/ha, 14th day after application
Method in brief: as §3

[20] = system: wheat (Triticum aestivum L.); assay: as above; conditions: active ingredient amount 31 g/ha, 14th day after application
Method in brief: as §3

Structure (SMILES)	Growth inhibition rate (%) Barnyardgrass [1]	Growth inhibition rate (%) Corn (corn (Zea mays L.) [2])	Growth inhibition rate (%) Crabgrass [3]	Growth inhibition rate (%) Green foxtail [4]	Growth inhibition rate (%) Italian ryegrass [5]	Growth inhibition rate (%) Redroot pigweed [6]	Growth inhibition rate (%) Rice (rice (Oryza sativa L.) [7])	Growth inhibition rate (%) Soybean [8]	Growth inhibition rate (%) Wheat [9]	Growth inhibition rate (%) Wild oat [10]	Growth inhibition rate (%) Barnyardgrass [11]	Growth inhibition rate (%) Corn (corn (Zea mays L.) [12])	Growth inhibition rate (%) Crabgrass [13]	Growth inhibition rate (%) Green foxtail [14]	Growth inhibition rate (%) Prickly sida [15]	Growth inhibition rate (%) Redroot pigweed [16]	Growth inhibition rate (%) Rice (rice (Oryza sativa L.) [17])	Growth inhibition rate (%) Soybean [18]	Growth inhibition rate (%) Velvetleaf [19]	Growth inhibition rate (%) Wheat [20]
Cc1ccc(Oc2cnc3cc(Cl)ccc3n2)cc1-c1c(OC(=O)c2ccccn2)c(C)nn(C)c1=O [Compound 3-51]	99%	60%	100%	100%	99%	0%	60%	30%	99%	99%	99%	0%	95%	100%	0%	0%	0%	0%	0%	0%
Cc1ccc(Oc2cnc3cc(Cl)ccc3n2)cc1-c1c(OC(=O)C(F)(F)F)c(C)nn(C)c1=O [Compound 3-52]	100%	35%	95%	100%	90%	0%	70%	20%	10%	20%	99%	0%	95%	100%	0%	0%	0%	0%	0%	0%
Cc1ccc(Oc2cnc3cc(Cl)ccc3n2)cc1-c1c(OC(=O)C=CCl)c(C)nn(C)c1=O [Compound 3-54]	100%	30%	98%	100%	95%	0%	20%	20%	93%	78%	99%	0%	30%	98%	0%	0%	0%	0%	0%	0%
COCCOC(=O)Oc1c(C)nn(C)c(=O)c1-c1cc(Oc2cnc3cc(Cl)ccc3n2)ccc1C [Compound 3-55]	98%	50%	99%	100%	99%	0%	90%	30%	98%	99%	80%	0%	30%	60%	0%	0%	0%	0%	0%	0%
Cc1ccc(Oc2cnc3cc(Cl)ccc3n2)cc1-c1c(OC(=O)Oc2ccc(F)cc2)c(C)nn(C)c1=O [Compound 3-57]	100%	25%	99%	100%	95%	0%	0%	25%	95%	99%	90%	40%	30%	95%	0%	0%	0%	30%	0%	0%
C=CCOC(=O)Oc1c(C)nn(C)c(=O)c1-c1cc(Oc2cnc3cc(Cl)ccc3n2)ccc1C [Compound 3-58]	100%	55%	99%	100%	99%	0%	50%	25%	98%	95%	85%	0%	10%	75%	0%	0%	0%	0%	0%	0%
